The values below come from publication PMC8565742 (PLoS Neglected Tropical Diseases, 2021).

Experiment [1] concerns the target T1, Sm.TRPMPZQ (Schistosoma mansoni, UniProt A0A5K4F0X5). The conditions noted are these: confocal Ca2+ imaging; cited from earlier work.
Experiment [2] deals with untransfected HEK293 cells. The experiment is described as follows: Counterscreen, antagonist mode, Ca2+ signal in untransfected HEK cells. The conditions noted are these: counterscreen titration; for EC50: Homo sapiens, HEK293, unit inferred, read-out: HEK ANT Final EC50. Type of experiment: cell-based. How it is done:
(§1) HEK cells were transfected with cDNA (400μg/ml DNA) encoding Sm.TRPMPZQ using a Maxcyte STX electroporation system and incubated overnight at 37°C. This system is uniquely capabable of large scale transfections providing one batch of cells ready for large scale HTS [30]. Briefly, the HEK cells were resuspended at 10^8/ml in Maxcyte electroporation buffer. Plasmid DNA was added to the cells in buffer to achieve a concentration of 400 μg/ml from a stock of 5mg/ml (in TE buffer). This mixture was loaded into the appropriate cassette, inserted into the machine, and cells electroporated. Cells were then frozen to provide a single supply of transfected cells for all subsequent assays. On the day of the assays, cells were thawed in a 37°C waterbath, and resuspended in DMEM + 10% FBS and counted. The cells were pelleted by centrifugation at 170xg for 5 minutes. The media was aspirated, and the remaining pellet was resuspended in 1x HBSS with 20 mM HEPES and 1% DMSO to achieve 1.33x10^6cells/ml. This cell suspension was then dispensed at 3 μl/well to the 1536 well plates (Greiner Bio One part 789072) at a density of 4,000 cells/well. Measurements of fluorescence intensity (λex = 470 nm, λem = 535 nm) were made using a FLIPR (Molecular Devices FLIPR Tetra). A read of basal fluorescence values was made (5s) prior to addition of compounds or controls (30 nl). In both ‘agonist’ and ‘antagonist mode’, the total assay volume was 6μl (1% DMSO). […] Ligand performance was categorized using an algorithm based on the activity of the entire dataset to define a ‘hit-cutoff’ parameter for both agonist-mode and antagonist-mode screening. Any compound with greater percent activation than this cutoff was assigned as ‘active’ prior to titration and counter-screening. Titration assays were executed using the same reagents, protocols and detection systems, done as 10-point concentration-response curves, performed in triplicate. Counter-screening was performed using untransfected HEK293 cells for comparison with results testing the same compounds effect on cells expressing Sm.TRPMPZQ, with ATP used as the positive control. For each compound, activity was plotted against compound concentration and data were fitted with a sigmoidal function. In order to be considered a hit at this stage a compound must achieve a EC50<5 μM for agonists and IC50 <5 μM for antagonists. All compounds selected for titration were subjected to LC-MS analysis to confirm mass and sample purity. ChemAxon (https://www.chemaxon.com) academic licensing was provided for the use of Instant JChem (ver. 15.10.12.0) to perform compound mining of the libraries utilized in this effort.
A general note: Counterscreens check selectivity or assay interference.

A further experiment has as its system Sm.TRPMPZQ[R1514A]. The experiment is described as follows: Ca2+ signal in cells expressing the binding pocket mutant. It is filed as cell-based, Schistosoma mansoni.
Experiment [3] concerns the target T1, Sm.TRPMPZQ. The experiment is described as follows: cell-based. As to conditions: for Emax: HEK293. The protocol: as §1, with “This cell suspension was then dispensed at 3 μl/well to the 1536 well plates (Greiner Bio One part 789072) at a density of 4,000 cells/well. Measurements of fluorescence intensity (λex = 470 nm, λem = 535 nm) were made using a FLIPR (Molecular Devices FLIPR Tetra).” left out, “Any compound with greater percent activation than this cutoff was assigned as ‘active’ prior to titration and counter-screening.” left out, “function.” for “function. In order to be considered a hit at this stage a compound must achieve a EC50<5 μM for agonists and IC50 <5 μM for antagonists. All compounds selected for titration were subjected to LC-MS analysis to confirm mass and sample purity. ChemAxon (https://www.chemaxon.com) academic licensing was provided for the use of Instant JChem (ver. 15.10.12.0) to perform compound mining of the libraries utilized in this effort.”

The test system of a further experiment is adult schistosome worms. The experiment is described as follows: Schistosome mobility assay ex vivo. It is filed as cell-based, S. mansoni. How it is done:
Adult schistosomes were harvested from the mesenteric vasculature of female Swiss Webster mice previously infected (~49 days earlier) with S. mansoni cercariae (NMRI strain) by the Schistosomiasis Resource Center at the Biomedical Research Institute (BRI, Rockville, MD). Harvested schistosomes were washed in RPMI 1640 supplemented with 5% heat inactivated FBS (Gibco), HEPES (25 mM) and penicillin-streptomycin (100 units/mL). After isolation, worms were incubated overnight (37°C/5% CO2) in vented petri dishes (100x25 mm). Movement assays were performed using male and female worms in six well dishes (~5 individual worms/3ml media per well). Video recordings of worm motility (4 frames/sec) were captured using a Zeiss Discovery v20 stereomicroscope coupled to a QiCAM 12-bit cooled color CCD camera controlled by Metamorph imaging software.

For the next experiment, the system named is schistosomes. The arrangement: method as in PMID 27128493. The conditions noted are these: read-out: IC50 in phenotypic assays; cited from earlier work.

What is called EC50 is the concentration needed to bring the measured effect to its halfway point. The IC50 is the concentration that gives 50% inhibition.

Read-outs that look alike come from different tables or passages of the source.

T1 sequence (A0A5K4F0X5 entry or part of it): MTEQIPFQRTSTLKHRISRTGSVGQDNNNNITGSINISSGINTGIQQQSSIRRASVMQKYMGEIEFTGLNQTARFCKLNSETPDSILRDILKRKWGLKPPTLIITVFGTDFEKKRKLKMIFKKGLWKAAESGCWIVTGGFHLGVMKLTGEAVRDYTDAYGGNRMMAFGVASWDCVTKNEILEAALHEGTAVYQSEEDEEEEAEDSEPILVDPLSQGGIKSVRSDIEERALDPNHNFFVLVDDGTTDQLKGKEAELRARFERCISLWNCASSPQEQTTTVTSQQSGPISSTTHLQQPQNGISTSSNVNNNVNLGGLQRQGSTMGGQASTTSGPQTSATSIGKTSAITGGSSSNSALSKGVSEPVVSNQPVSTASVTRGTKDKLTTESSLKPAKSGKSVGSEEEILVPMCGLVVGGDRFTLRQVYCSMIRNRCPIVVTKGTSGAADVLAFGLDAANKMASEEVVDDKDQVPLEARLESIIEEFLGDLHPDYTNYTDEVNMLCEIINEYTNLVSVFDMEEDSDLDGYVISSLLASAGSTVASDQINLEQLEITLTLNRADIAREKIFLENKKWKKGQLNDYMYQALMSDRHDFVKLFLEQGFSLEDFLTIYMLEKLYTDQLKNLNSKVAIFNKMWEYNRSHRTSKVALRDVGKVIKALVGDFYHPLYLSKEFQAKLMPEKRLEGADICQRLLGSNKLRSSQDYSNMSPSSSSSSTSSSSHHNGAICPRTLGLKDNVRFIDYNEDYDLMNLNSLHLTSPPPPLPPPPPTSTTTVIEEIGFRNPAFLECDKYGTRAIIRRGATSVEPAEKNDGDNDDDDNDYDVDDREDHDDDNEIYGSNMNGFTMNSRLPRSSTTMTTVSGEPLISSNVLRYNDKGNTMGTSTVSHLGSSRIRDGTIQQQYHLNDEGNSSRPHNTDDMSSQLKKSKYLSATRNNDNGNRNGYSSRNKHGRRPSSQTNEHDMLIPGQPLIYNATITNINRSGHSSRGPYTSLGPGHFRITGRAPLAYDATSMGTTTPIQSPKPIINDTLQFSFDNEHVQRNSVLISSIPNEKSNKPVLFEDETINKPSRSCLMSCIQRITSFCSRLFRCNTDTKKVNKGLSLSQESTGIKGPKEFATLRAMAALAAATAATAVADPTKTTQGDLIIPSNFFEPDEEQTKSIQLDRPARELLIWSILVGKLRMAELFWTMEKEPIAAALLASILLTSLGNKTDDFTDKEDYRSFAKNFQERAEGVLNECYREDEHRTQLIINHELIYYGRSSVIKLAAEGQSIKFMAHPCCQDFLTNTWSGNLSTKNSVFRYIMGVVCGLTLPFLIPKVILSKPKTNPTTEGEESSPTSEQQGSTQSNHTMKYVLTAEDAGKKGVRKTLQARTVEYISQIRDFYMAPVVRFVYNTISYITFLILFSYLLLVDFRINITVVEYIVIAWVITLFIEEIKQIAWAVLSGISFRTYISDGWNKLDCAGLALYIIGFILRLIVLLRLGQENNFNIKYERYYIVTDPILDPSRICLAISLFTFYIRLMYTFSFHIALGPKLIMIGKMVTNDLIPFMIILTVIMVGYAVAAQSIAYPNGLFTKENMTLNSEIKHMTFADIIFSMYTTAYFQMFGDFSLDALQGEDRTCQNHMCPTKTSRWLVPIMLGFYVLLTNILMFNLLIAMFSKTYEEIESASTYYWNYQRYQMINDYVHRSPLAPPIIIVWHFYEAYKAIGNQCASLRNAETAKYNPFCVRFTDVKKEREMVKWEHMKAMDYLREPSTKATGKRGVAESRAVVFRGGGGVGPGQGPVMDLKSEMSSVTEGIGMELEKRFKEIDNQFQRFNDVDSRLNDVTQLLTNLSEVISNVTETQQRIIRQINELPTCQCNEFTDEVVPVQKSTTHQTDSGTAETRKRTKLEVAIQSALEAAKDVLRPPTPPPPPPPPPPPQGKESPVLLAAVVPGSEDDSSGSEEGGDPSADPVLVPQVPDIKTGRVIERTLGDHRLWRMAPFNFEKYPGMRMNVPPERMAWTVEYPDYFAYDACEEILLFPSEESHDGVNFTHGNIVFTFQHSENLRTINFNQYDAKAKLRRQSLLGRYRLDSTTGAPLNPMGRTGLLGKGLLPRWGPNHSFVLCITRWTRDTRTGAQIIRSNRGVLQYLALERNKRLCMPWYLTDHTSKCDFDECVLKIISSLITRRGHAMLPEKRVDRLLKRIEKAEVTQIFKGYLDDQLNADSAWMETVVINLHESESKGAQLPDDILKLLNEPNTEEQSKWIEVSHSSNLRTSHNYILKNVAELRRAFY

Take `O=C(C1CCCCC1)N1CC(=O)N2CCc3ccccc3C2C1` (centres unmarked) [PZQ, praziquantel, reference compound]: the “ΔF/F, amplitude of Ca2+ transient” value on Sm.TRPMPZQ [1] is 12.3±2.1. For the same compound, in experiment [2] (S2 Table), the EC50 was greater than 12.4 µM. Moreover, the “HEK ANT Averaged Max % Response” value in experiment [2] (S2 Table, listed as SR-01000003100-3) stood at 20.9575%; in experiment [2] (S2 Table, listed as SR-01000003100-19), 9.578%. Also, in the experiment on Sm.TRPMPZQ[R1514A], the “Ca2+ elevation at binding site mutant” value is on record as “did not elevate Ca^2+”. In addition, the “Sm.TRPMPZQ ANT Hill Slope” value at Sm.TRPMPZQ [3] (S2 Table, titration, listed as SR-01000003100-3) amounted to 1.74.
`Cc1onc(-c2ccccc2)c1C(=O)N1CCN(C2c3ccccc3-c3ccccc32)CC1` [ANT1, 1-(9H-fluoren-9-yl)-4-(5-methyl-3-phenyl-1,2-oxazole-4-carbonyl)piperazine]: in experiment [2] (S3 Table), the concentration giving a half-maximal response (EC50) was greater than 12.4 µM and the “HEK ANT Averaged Max % Response” value is 43.1011%. For the same compound, the “recovery of worms in continued presence of PZQ” value in the experiment with adult schistosome worms (50μM, PZQ 250 nM, 24 hours, compared to PZQ alone) was “enhanced recovery”. In addition, the “effect on worm motility” value with adult schistosome worms (applied alone to intact worms) is “did not change worm motility”. For the same compound, the Emax at Sm.TRPMPZQ [3] (S3 Table, titration, read-out: Sm.TRPMPZQ ANT Averaged Max % Response) is 105%. Besides, the IC50 on Sm.TRPMPZQ [3] (read-out: IC50, block of PZQ-evoked Ca2+ signals) was 1.3 ± 0.3 µM.
As for `COc1ccc(-c2nnc3ccc(-c4cccc(C(C)C)c4)cn23)cc1OC` [AG1, 3-(3,4-Dimethoxyphenyl)-6-(3-propan-2-ylphenyl)-[1,2,4]triazolo[4,3-a]pyridine], in experiment [2] (S2 Table), the concentration for a half-maximal effect (EC50) turned out to be 10.3 µM and the “HEK ANT Averaged Max % Response” value came out at 64.2957%. In the experiment on schistosomes, the half-inhibitory concentration (IC50) was roughly 1.6 µM. For the same compound, the “effect on adult worms ex vivo” value in the experiment with adult schistosome worms (agonist alone) is recorded as “evoked a sustained contraction”. Also, in the experiment with Sm.TRPMPZQ[R1514A], the “Ca2+ elevation at binding site mutant” value is given as “ablated AG1 activity”. The Emax at Sm.TRPMPZQ [3] (S2 Table, antagonist mode titration, read-out: Sm.TRPMPZQ Averaged Max % Response) was 109%. Further, the EC50 on Sm.TRPMPZQ [3] (S2 Table, 10-point titration in triplicate, unit inferred, read-out: Sm.TRPMPZQ ANT Final EC50) was 0.571 µM. The “Sm.TRPMPZQ ANT Hill Slope” value at Sm.TRPMPZQ [3] (S2 Table, titration) stood at 2.322.
